Assay results published in patent US5494932A, “Sulfonic stilbene derivatives in the treatment of viral disease” (Merrell Dow Pharmaceuticals Inc., priority 1991, dated 1996).
Like-named read-outs stand apart in the source and are kept apart here.

Columns and labels:
Assay type in all cases: cell-based, HIV-1 (human T cell line JM)
[1] = system: HIV-1 strain GB8 in JM cells; test: Acute HIV-1 (GB8) infection of JM cells: syncytial counts and p24 antigen; conditions: for Mean Syncytial Counts: at day 4 p.i.
Description: When evaluated in the human T cell line JM acutely infected with the GB8 virus, DIDS, H2 DIDS and SITS (Table I) suppressed virus-induced multinucleated giant cell formation (syncytia). […] We also examined the antiviral properties of these compounds in a second host-cell/virus system, i.e., the highly CD4+ C8166 cells infected with the Haitian strain of HIV-1, RF.
The cell lines used were the semi-mature human lymphoblastoid leukemia T cell line JM, the human T-lymphoblastoid C8166 cell line, the human cutaneous T cell lymphoma line H9 and, the human T cell transformed line MT-4. Stocks of HIV-1 strains RF and GB8 (kindly provided by Dr. Graham Farrar, Center for Applied Microbiological Research, Porton Dawn, England) were prepared from chronically infected H9 cells and acutely infected JM cells, respectively. Virus stocks consisted of cell-free growth medium (RPMI 1640 plus 10% fetal calf serum) containing freshly shed virus. Virus titres were determined by a standard plaque reduction assay.
Virus stocks (strains RF or GB8) were diluted into growth medium containing various concentrations of DIDS, H2 DIDS or SITS. The required number of cells were then immediately added and the virus allowed to absorb for 2 hours at 37° C. to give a multiplicity of infection (MOI) of 0.001 infectious units/cell. The virus-infected cells were pelleted, washed three times in phosphate buffered saline (PBS), and resuspended in fresh growth medium containing the appropriate concentrations of stilbene disulfonic acids. Cells were then distributed into 24-well culture plates (Falcon) and assayed as described below for virus infection. Alternatively, cells were first infected with HIV-1 (strains RF or GB8) for 2 hours at 37° C. at the above MOI. After extensive washing, cells were replated into fresh growth medium containing various concentrations of stilbene disulfonic acids. In the above experiments, syncytia were scored between 2 and 4 days postinfection (p.i.) in triplicate using an Olympus CK2 inverted microscope. The culture fluids were recovered between 3 and 5 days p.i., clarified by low speed centrifugation (2,000 rpm) for 5 minutes and the level of HIV-1 p24 core antigen in the supernatants was determined by p24 antigen ELISA (Coulter). The concentrations of stilbene disulfonic acids giving 50% inhibition of HIV-1 growth (IC50) were determined from the dose-response curves by linear regression analysis.
Protocol: JM cells were infected with HIV-1 to give a multiplicity of infection of 0.001. Virus adsorption was for 2 hours at room temperature. The cells were washed and distributed into wells containing different concentrations of test compounds and incubated. After 2 days the cells were observed and syncytia were counted. The cell-free supernatant fluids were harvested at 4 and 6 days post infection and assayed for levels of p24 viral core antigen and after 6 days the supernatants were also titrated to determine levels of infectivity.

[2] = system: HIV-1 strain GB8 in JM cells; test: Established HIV-1 (GB8) infection of JM cells, post-infection addition: syncytia and p24 antigen; conditions: 100 μg/ml; for activity at 100 µg/mL: Human immunodeficiency virus 1, 75 h
Protocol: The stilbene disulfonic acids blocked HIV-1 replication when the compounds were added within 2 hours of virus adsorption, i.e., prior to virus penetration, and the cells were cultured in the presence of the inhibitors. These compounds were next examined for antiviral activity at later stages of the infection process. At a MOI of 0.01 infectious units/cell (GB8 virus), viral glycoproteins appear at the surface of JM cells by 24 hours post-infection (p.i.) and initiate fusion with neighboring CD4^+ cells; the syncytial numbers show a good correlation with the production of cell-free virus (Tyms et al., 1990).
In post-treatent experiments, cells were first infected with HIV-1 strain RF or GB8 for 2 hours at 37° C. at a MOI of 0.01 and allowed to grow for either 24 or 43 hours before replating into fresh growth medium containing 100 μg/ml of DIDS, H2 DIDS or SITS. Syncytia were then scored at 52 and 68 hours p.i. in triplicate, and p24 viral core antigen in culture fluids were assayed at 75 hours p.i. as described above.
Protocol: JM cells were infected with HIV at a multiplicity of infection of 0.00025 syncytial forming units per cell. Virus adsorption was at room temperature for one hour. The cells were then washed three times and distributed in wells of a tissue culture plate at a concentration of 2×10^5 cells/well. Either DIDS, SITS or H2 DIDS (all at 100 μg/ml) were added to wells at 0, 24, 43 and 51 hours post-infection. As virus controls some wells had no drug added. Syncytia were scored at 43, 52 and 68 hours post-infection. The cell-free supernatant fluids of the virus control wells were harvested after 33, 43, 51, 68 and 75 hours post-infection. All other wells were harvested 75 hours post-infection. The supernatant fluid was then assayed for p24 viral core antigen.

[3] = system: HIV-1 strain GB8 in JM cells; test: as above; conditions: 100 μg/ml

O=S(=O)(O)c1cc(N=C=S)ccc1CCc1ccc(N=C=S)cc1S(=O)(=O)O [H2 DIDS, 4,4'-diisothiocyanatodihydrostilbene-2,2'-disulfonic acid]
Mean Syncytial Counts 2 Days p.i. ([1]; 3 μg/ml): 107
Mean Syncytial Counts ([1]; 6 μM): 107
Mean Syncytial Counts 2 Days p.i. ([1]; 6 μg/ml): 97
Mean Syncytial Counts ([1]; 12 μM): 97
Mean Syncytial Counts 2 Days p.i. ([1]; 12.5 μg/ml): 71
p24 4 days p.i. ([1]; 12.5 μg/ml): 94000 pg/mL
p24 6 days p.i. ([1]; 12.5 μg/ml): 8.51 × 10^6 pg/m.
Mean Syncytial Counts ([1]; 25 μM): 71
Mean Syncytial Counts 2 Days p.i. ([1]; 25 μg/ml): 7
p24 4 days p.i. ([1]; 25 μg/ml): 32000 pg/mL
p24 6 days p.i. ([1]; 25 μg/ml): 2.66 × 10^6 pg/m.
Mean Syncytial Counts ([1]; 50 μM): 7
Mean Syncytial Counts 2 Days p.i. ([1]; 50 μg/ml): 0
p24 4 days p.i. ([1]; 50 μg/ml): 70 pg/mL
p24 6 days p.i. ([1]; 50 μg/ml): 3.77 × 10^2 pg/m.
Mean Syncytial Counts ([1]; 100 μM): 0
Mean Syncytial Counts 2 Days p.i. ([1]; 100 μg/ml): 0
p24 6 days p.i. ([1]; 100 μg/ml): 6.48 × 10^2 pg/m.
Mean Syncytial Counts ([1]; 200 μM): 0
activity at 50 µg/mL ([1]; Human immunodeficiency virus 1, 96 h, read-out: p24 4 days p.i., % Control): 0.01%
activity at 12.5 µg/mL ([1]; Human immunodeficiency virus 1, 96 h, 12.5 μg/ml, read-out: p24 4 days p.i., % Control): > 100%
activity at 25 µg/mL ([1]; Human immunodeficiency virus 1, 96 h, 25 μg/ml, read-out: p24 4 days p.i., % Control): 43%
activity at 100 µg/mL ([1]; Human immunodeficiency virus 1, 96 h, 100 μg/ml, read-out: p24 4 days p.i., % Control): 0%
activity at 200 µM ([1]; Human immunodeficiency virus 1, 144 h, read-out: P24 Antigen % Virus Control): 0%
activity at 12 µg/mL ([1]; Human immunodeficiency virus 1, 144 h, 12 µg/mL, GB8 in JM cells, day 6 p.i., read-out: P24 Antigen % Virus Control): 100%
activity at 12.5 µg/mL ([1]; Human immunodeficiency virus 1, 144 h, 12.5 μg/ml, read-out: p24 6 days p.i., % Control): > 100%
activity at 25 µg/mL ([1]; Human immunodeficiency virus 1, 144 h, 25 µg/mL, GB8 in JM cells, day 6 p.i., read-out: P24 Antigen % Virus Control): 100%
activity at 25 µg/mL ([1]; Human immunodeficiency virus 1, 144 h, 25 μg/ml, read-out: p24 6 days p.i., % Control): > 100%
activity at 50 µg/mL ([1]; Human immunodeficiency virus 1, 144 h, 50 µg/mL, GB8 in JM cells, day 6 p.i., read-out: P24 Antigen % Virus Control): 43%
activity at 50 µg/mL ([1]; Human immunodeficiency virus 1, 144 h, 50 μg/ml, read-out: p24 6 days p.i., % Control): 0.02%
activity at 100 µg/mL ([1]; Human immunodeficiency virus 1, 144 h, 100 µg/mL, GB8 in JM cells, day 6 p.i., read-out: P24 Antigen % Virus Control): 0.01%
activity at 100 µg/mL ([1]; Human immunodeficiency virus 1, 144 h, 100 μg/ml, read-out: p24 6 days p.i., % Control): 0.03%
Mean Syncytia 68 hrs ([2]; time of addition 0h): 0
P24 Antigen 75 h ([2]; time of addition 0 h p.i.): Neg
Syncytia at 52h ([2]; time of addition 0 h p.i.): 0
Syncytia at 68h ([2]; time of addition 0 h p.i.): 0
Mean Syncytia 68 hrs ([2]; time of addition 24h): 0
P24 Antigen (75 hours post-infection) ([2]; time of addition 24 hours): 2363 pg/mL
P24 Antigen 75 h ([2]; time of addition 24 h p.i.): 2.4 ng/mL
Syncytia at 52h ([2]; time of addition 24 h p.i.): 0
Syncytia at 68h ([2]; time of addition 24 h p.i.): 0
Mean Syncytia 51 hrs ([2]; time of addition 43h): 19
Mean Syncytia 68 hrs ([2]; time of addition 43h): 3
P24 Antigen (75 hours post-infection) ([2]; time of addition 43 hours): 16412 pg/mL
P24 Antigen 75 h ([2]; time of addition 43 h p.i.): 16.4 ng/mL
Syncytia at 52h ([2]; time of addition 43 h p.i.): 19
Syncytia at 68h ([2]; time of addition 43 h p.i.): 3
Mean Syncytia 68 hrs ([2]; time of addition 51h): 15
P24 Antigen (75 hours post-infection) ([2]; time of addition 51 hours): 42020 pg/mL
activity at 100 µg/mL ([2]; time of addition 0 hours, read-out: P24 Antigen (75 hours post-infection), %): < 1%
activity at 100 µg/mL ([2]; time of addition 0 h p.i., read-out: P24 Antigen 75 h, % (drug-free medium 100%)): 0%
activity at 100 µg/mL ([2]; time of addition 24 hours, read-out: P24 Antigen (75 hours post-infection), %): 2%
activity at 100 µg/mL ([2]; time of addition 24 h p.i., read-out: P24 Antigen 75 h, % (drug-free medium 100%)): 2%
activity at 100 µg/mL ([2]; time of addition 43 hours, read-out: P24 Antigen (75 hours post-infection), %): 14%
activity at 100 µg/mL ([2]; time of addition 43 h p.i., read-out: P24 Antigen 75 h, % (drug-free medium 100%)): 14%
activity at 100 µg/mL ([2]; time of addition 51 hours, read-out: P24 Antigen (75 hours post-infection), %): 36%
Mean Syncytia 51 hrs ([3]; time of addition 0h): 0
Mean Syncytia 51 hrs ([3]; time of addition 24h): 0
